Source: patent publication US9890166B2, “Imidazopyrrolidine derivatives and their use in the treatment of disease” (NOVARTIS AG, priority 2013, dated 2018)

Experiments:
BRD2 (His-Brd2(60-472)) = BRD2 (His-Brd2(60-472)) (Homo sapiens (Human), UniProt P25440); experiment: TR-FRET in-vitro binding assay for BRD2; conditions: single determination or n ≧ 2 independent determinations, read-out: Biochemical IC50 BRD2
Method: (§1) TR-FRET In-Vitro Binding Assays for BRD2, BRD3, and BRD4:
(§2) All assays were performed in 384 well microtiter plates. Each assay plate contained 8-point serial dilutions for 40 test compounds, plus 16 high- and 16 low controls. Liquid handling and incubation steps were done on an Innovadyne Nanodrop Express equipped with a robotic arm (Thermo CatX, Perkin Elmer/Caliper Twister II) and an incubator (Liconic STX40, Thermo Cytomat 2C450). The assay plates were prepared by addition of 50 nl per well of compound solution in 90% DMSO HummingBird nanodispenser (Zinsser Analytic). […] Reactions were incubated at 30° C. for 35 minutes. […] After 35 minutes incubation at 30° C., plates were measured in a Perkin Elmer EnVision multilabel reader.
(§3) Preparation of Compound Dilutions
(§4) Test compounds were dissolved in DMSO (10 mM) and transferred into 1.4 mL flat bottom or V-shaped Matrix tubes carrying a unique 2D matrix. The stock solutions were stored at […] if not used immediately. For the test procedure the vials were defrosted and identified by a scanner whereby a working sheet was generated that guided the subsequent working steps.
(§5) Compound dilutions were made in 96 well plates. This format enabled the assay of maximally 40 individual test compounds at 8 concentrations (single points) including 4 reference compounds, if desired (known BET inhibitors from the prior art, for this and other assays of the type disclosed herein). The dilution protocol included the production of “pre-dilution plates”, “master plates” and “assay plates”.
(§6) Pre-Dilution Plates: 96 polypropylene well plates were used as pre-dilution plates. A total of 4 pre-dilution plates were prepared including 10 test compounds each on the plate positions A1-A10, one standard compound at A11 and one DMSO control at A12. All dilution steps were done on a HamiltonSTAR robot.
(§7) These plates were used directly for the assay which was performed in a total volume of 13.55 μL.

THP-1 cells = experiment: Cell growth inhibition assay (CellTiter-Glo), THP-1; conditions: for GI50: Homo sapiens, THP-1, read-out: THP-1 GI50; for THP-1 TGI: THP-1 cells, total growth inhibition, CellTiter-Glo;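 on all read-outs here: viability read as cellular ATP luminescence after 4 days, 3-fold dilution series from 10 µM, DMSO vehicle-treated cells taken as 100%, cell-free medium wells as −100%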
K-562 cells = experiment: Cell growth inhibition assay (CellTiter-Glo), K-562; conditions: for GI50: Homo sapiens, K562, read-out: K-562 GI50; for K-562 TGI: K-562 cells, total growth inhibition, CellTiter-Glo;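 on all read-outs here: cellular ATP measured by luminescence after 4 days of exposure, 3-fold dilution series from 10 µM, DMSO vehicle-treated cells define 100%, cell-free medium wells −100%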
BRD4 (His-Brd4(44-477)) = BRD4 (His-Brd4(44-477)) (Homo sapiens (Human), UniProt O60885); experiment: TR-FRET in-vitro binding assay for BRD4; conditions: single determination or n ≧ 2 independent determinations, read-out: Biochemical IC50 BRD4
Method: as §1, §2, §3, §4, §5, §6, §7

BRD3 (His-Brd3(20-477)) = BRD3 (His-Brd3(20-477)) (Homo sapiens (Human), UniProt Q15059); experiment: TR-FRET in-vitro binding assay for BRD3; conditions: single determination or n ≧ 2 independent determinations, read-out: Biochemical IC50 BRD3
BRD3 (His-Brd3(20-477)), sequence (Q15059 20-477): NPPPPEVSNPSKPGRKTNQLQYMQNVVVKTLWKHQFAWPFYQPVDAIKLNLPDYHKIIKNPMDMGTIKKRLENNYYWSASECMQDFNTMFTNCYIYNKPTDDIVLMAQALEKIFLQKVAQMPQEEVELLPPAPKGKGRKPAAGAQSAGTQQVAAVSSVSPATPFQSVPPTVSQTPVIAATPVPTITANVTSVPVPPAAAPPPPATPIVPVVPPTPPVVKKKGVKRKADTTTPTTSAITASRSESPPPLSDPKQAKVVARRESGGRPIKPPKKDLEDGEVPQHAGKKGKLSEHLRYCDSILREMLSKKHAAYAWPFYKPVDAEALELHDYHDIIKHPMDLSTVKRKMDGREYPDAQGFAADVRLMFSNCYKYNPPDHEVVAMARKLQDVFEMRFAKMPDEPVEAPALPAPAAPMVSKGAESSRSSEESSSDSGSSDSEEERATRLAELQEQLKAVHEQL
Method: as §1, §2, §3, §4, §5, §6, §7

MV-4-11 cells = experiment: Cell growth inhibition assay (CellTiter-Glo), MV-4-11; conditions: for GI50: Homo sapiens, MV4-11, read-out: MV-4-11 GI50; for MV-4-11 TGI: MV-4-11 cells, total growth inhibition, CellTiter-Glo;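 on all read-outs here: cellular ATP luminescence after 4 days, 3-fold dilution series from 10 µM top dose, vehicle (0.1% DMSO) set to 100%, cell-free medium set to −100%, day 0 corrected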
[1] = biological target: CREBBP bromodomain (His-CREBBP(1081-1197)) (Homo sapiens (Human), UniProt Q92793); experiment: AlphaScreen in-vitro binding assay for CREBBP; conditions: single determination or n ≧ 2 independent determinations, read-out: Biochemical IC50 CREBBP
CREBBP bromodomain (His-CREBBP(1081-1197)), sequence (Q92793 1081-1197): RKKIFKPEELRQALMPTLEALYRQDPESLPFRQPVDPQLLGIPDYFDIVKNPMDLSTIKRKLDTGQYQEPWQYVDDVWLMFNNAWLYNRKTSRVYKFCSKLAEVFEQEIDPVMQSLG
Method: AlphaScreen In-Vitro Binding Assay for CREBBP
In order to assess bromodomain selectivity, we set up a binding assay using the bromodomain encoded by the CREBBP gene. […] Reactions were incubated at 30° C. for 35 minutes. Subsequently 4.5 μl per well detection mix (50 mM HEPES, pH 7.5, 0.005% Tween20, 0.02% BSA, 150 mM NaCl, 45 μg/ml Ni-chelate acceptor beads, 45 μg/mIstreptavidin-donor beads) (Perkin Elmer)) were added. After 60 minutes incubation at room temperature, plates were measured in a Perkin Elmer EnVision multilabel reader. IC50 values were determined from percent inhibition values at different compound concentrations by non-linear regression analysis.
as §3, §4, §5, §6, §7

BRD2 (His-Brd2(60-472)), sequence (P25440 60-472): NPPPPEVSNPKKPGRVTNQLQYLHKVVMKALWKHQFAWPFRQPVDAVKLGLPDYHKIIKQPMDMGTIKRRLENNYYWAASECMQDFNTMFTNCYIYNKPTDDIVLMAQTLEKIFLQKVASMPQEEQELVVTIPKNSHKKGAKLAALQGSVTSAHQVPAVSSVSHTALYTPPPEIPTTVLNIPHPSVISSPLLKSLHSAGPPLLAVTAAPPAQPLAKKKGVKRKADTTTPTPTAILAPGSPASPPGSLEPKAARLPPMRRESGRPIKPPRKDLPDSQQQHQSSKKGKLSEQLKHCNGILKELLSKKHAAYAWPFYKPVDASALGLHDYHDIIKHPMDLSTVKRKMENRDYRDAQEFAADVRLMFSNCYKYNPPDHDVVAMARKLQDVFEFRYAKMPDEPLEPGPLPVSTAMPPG

SMILES | IC50 (BRD2 (His-Brd2(60-472))) [nM] | GI50 (THP-1 cells) [nM] | THP-1 TGI (THP-1 cells) [nM] | GI50 (K-562 cells) [nM] | K-562 TGI (K-562 cells) [nM] | IC50 (BRD4 (His-Brd4(44-477))) [nM] | IC50 (BRD3 (His-Brd3(20-477))) [nM] | GI50 (MV-4-11 cells) [nM] | MV-4-11 TGI (MV-4-11 cells) [nM] | IC50 [1] [nM]
COc1cc(N2C(=O)c3nc(C4CCOCC4)n(C(C)C)c3C2c2ccc(Cl)cc2)cc2c1nnn2C (racemic) [Example 64] | 120 | 84.3 | 155 | 156 | >10000 | 43 | 58 | 35.1 | 54.6 | 10200
COc1ncccc1-c1nc2c(n1C(C)C)C(c1ccc(Cl)cc1)N(c1cc(OC)c3nnn(C)c3c1)C2=O (racemic) [Example 74, 6-(4-chlorophenyl)-1-isopropyl-5-(4-methoxy-1-methyl-1H-benzo[d][1,2,3]triazol-6-yl)-2-(2-methoxypyridin-3-yl)-5,6-dihydropyrrolo[3,4-d]imidazol-4(1H)-one] | 140 | 57.9 | 121 | 158 | >10000 | 32 | 61 | 38.2 | 59.25 | 10300
CC(C)n1c(-c2ccccn2)nc2c1C(c1ccc(Cl)cc1)N(c1ccc(=O)n(C)c1)C2=O (centres unmarked) [Example 20, 6-(4-chlorophenyl)-1-isopropyl-5-(1-methyl-6-oxo-1,6-dihydropyridin-3-yl)-2-(Pyridin-2-yl)-5,6-dihydropyrrolo[3,4-d]imidazol-4(1H)-one] | 710 |  |  |  |  | 630 | 610 |  |  | 24600
CC(C)n1c(-c2ccnn2C)nc2c1C(c1ccc(Cl)cc1)N(c1ccc(=O)n(C)c1)C2=O (centres unmarked) [Example 21, 6-(4-chlorophenyl)-1-isopropyl-2-(1-methyl-1H-pyrazol-5-yl)-5-(1-methyl-6-oxo-1,6-dihydropyridin-3-yl)-5,6-dihydropyrrolo[3,4-d]imidazol-4(1H)-one] | 1100 |  |  |  |  | 772 | 840 |  |  | 34800
CC(C)n1c(-c2ccn(C)n2)nc2c1C(c1ccc(Cl)cc1)N(c1ccc(=O)n(C)c1)C2=O (centres unmarked) [Example 22, 6-(4-chlorophenyl)-1-isopropyl-2-(1-methyl-1H-pyrazol-3-yl)-5-(1-methyl-6-oxo-1,6-dihydropyridin-3-yl)-5,6-dihydropyrrolo[3,4-d]imidazol-4(1H)-one] | 607 |  |  |  |  | 495 | 603 |  |  | > 37000
Cc1cc(N2C(=O)c3nc(-c4nccs4)n(C(C)C)c3[C@H]2c2ccc(Cl)cc2)cn(C)c1=O [Example 24, (R)-6-(4-chlorophenyl)-5-(1,5-dimethyl-6-oxo-1,6-dihydropyridin-3-yl)-1-isopropyl-2-(thiazol-2-yl)-5,6-dihydropyrrolo[3,4-d]imidazol-4(1H)-one] | 30 |  |  |  |  | 42.5 | 41.5 |  |  | 455
Cc1ncc(-c2nc3c(n2C(C)C)C(c2ccc(Cl)cc2)N(c2cc(C)c(=O)n(C)c2)C3=O)s1 (centres unmarked) [Example 29, 6-(4-chlorophenyl)-5-(1,5-dimethyl-6-oxo-1,6-dihydropyridin-3-yl)-1-isopropyl-2-(2-methylthiazol-5-yl)-5,6-dihydropyrrolo[3,4-d]imidazol-4(1H)-one] | 81 |  |  |  |  | 110 | 100 |  |  | 800
Cc1cc(N2C(=O)c3nc(-c4ccc[nH]4)n(C(C)C)c3C2c2ccc(Cl)cc2)cn(C)c1=O (centres unmarked) [Example 30, 6-(4-chlorophenyl)-5-(1,5-dimethyl-6-oxo-1,6-dihydropyridin-3-yl)-1-isopropyl-2-(1H-pyrrol-2-yl)-5,6-dihydropyrrolo[3,4-d]imidazol-4(1H)-one] | 92 |  |  |  |  | 120 | 100 |  |  | 1000
Cc1cc(N2C(=O)c3nc(C4CCCC4)n(C(C)C)c3C2c2ccc(Cl)cc2)cn(C)c1=O (centres unmarked) [Example 31, 6-(4-chlorophenyl)-2-cyclopentyl-5-(1,5-dimethyl-6-oxo-1,6-dihydropyridin-3-yl)-1-isopropyl-5,6-dihydropyrrolo[3,4-d]imidazol-4(1H)-one] | 45 | 79.4 | 125 | 349 | >10000 | 47 | 37 | 36.4 | 59.9 | 
Cc1cc(N2C(=O)c3nc(C4CC4)n(C(C)(C)C)c3C2c2ccc(Cl)cc2)cn(C)c1=O (centres unmarked) [Example 33, 1-(tert-butyl)-6-(4-chlorophenyl)-2-cyclopropyl-5-(1,5-dimethyl-6-oxo-1,6-dihydropyridin-3-yl)-5,6-dihydropyrrolo[3,4-d]imidazol-4(1H)-one] | 65 |  |  |  |  | 100 | 66 |  |  | 510
COc1ncccc1-c1nc2c(n1C(C)C)C(=O)N(c1cc(C)c(=O)n(C)c1)C2c1ccc(Cl)cc1 (centres unmarked) [Example 44, 6-(4-chlorophenyl)-5-(1,5-dimethyl-6-oxo-1,6-dihydropyridin-3-yl)-3-isopropyl-2-(2-methoxypyridin-3-yl)-5,6-dihydropyrrolo[3,4-d]imidazol-4(3H)-one] | 33 |  |  |  |  | 39 | 39 |  |  | 1000
COc1ncccc1-c1nc2c(n1C(C)C)[C@@H](c1ccc(Cl)cc1)N(c1cc(C)c3nnn(C)c3c1)C2=O [Example 112, (R)-6-(4-chlorophenyl)-5-(1,4-dimethyl-1H-benzo[d][1,2,3]triazol-6-yl)-1-isopropyl-2-(2-methoxypyridin-3-yl)-5,6-dihydropyrrolo[3,4-d]imidazol-4(1H)-one] | 13 | 4.79 | 9.84 | 17.2 | >10000 | < 11 | < 11 | 1.72 | 4.61 | 
CCn1c(C)nc2c1[C@@H](c1ccc(Cl)cc1)N(c1cc(C)c3nnn(C)c3c1)C2=O [Example 120, (R)-6-(4-chlorophenyl)-5-(3,7-dimethyl-3H-benzo[d][1,2,3]triazol-5-yl)-1-ethyl-2-methyl-5,6-dihydropyrrolo[3,4-d]imidazol-4(1H)-one] | 35.5 |  |  |  |  | 20.5 | 29.5 |  |  | 5130
CCn1c(C)nc2c1C(=O)N(c1cc(C)c3nnn(C)c3c1)[C@@H]2c1ccc(Cl)cc1 [Example 122, (R)-6-(4-chlorophenyl)-5-(3,7-dimethyl-3H-benzo[d][1,2,3]triazol-5-yl)-3-ethyl-2-methyl-5,6-dihydropyrrolo[3,4-d]imidazol-4(3H)-one] | 21.5 |  |  |  |  | 19 | 26 |  |  | 2620
COc1ncccc1-c1nc2c([nH]1)C(c1ccc(Cl)cc1)N(c1cc(C)c3nnc(C)n3c1)C2=O (centres unmarked) [Example 123, 6-(4-chlorophenyl)-5-(3,8-dimethyl-[1,2,4]triazolo[4,3-a]pyridin-6-yl)-2-(2-methoxypyridin-3-yl)-5,6-dihydropyrrolo[3,4-d]imidazol-4(1H)-one] | 97 |  |  |  |  | 65 | 87 |  |  | 5500
COc1ncccc1-c1nc2c([nH]1)[C@@H](c1ccc(Cl)cc1)N(c1cc(C)c3nnc(C)n3c1)C2=O [Example 142, (R)-6-(4-chlorophenyl)-5-(3,8-dimethyl-[1,2,4]triazolo[4,3-a]pyridin-6-yl)-2-(2-methoxypyridin-3-yl)-5,6-dihydropyrrolo[3,4-d]imidazol-4(1H)-one] | 96 |  |  |  |  | 40 | 36 |  |  | 1750
